From patent publication US12599136B2, “Substituted isophthalic acid diamides and their use as herbicides” (Bayer Aktiengesellschaft, priority 2020, dated 2026)

What was measured:
Assay type in all cases: in vivo
[1] = system: Abutilon theophrasti; assay: Pre-emergence herbicidal action against ABUTH; settings: visual score after 3 weeks vs untreated controls
Outline: (§1)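 Pre-emergence soil-surface spray of formulated compound (WP or EC; 600 to 800 l/ha; 0.2% wetting agent) over seeds sown in sandy loam. After 3 weeks under greenhouse conditions, damage is estimated visually in percent against untreated plants.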

[2] = system: Alopecurus myosuroides; assay: Pre-emergence herbicidal action against ALOMY; settings: visual score after 3 weeks vs untreated controls
Outline: as §1

[3] = system: Amaranthus retroflexus; assay: Pre-emergence herbicidal action against AMARE; settings: visual score after 3 weeks vs untreated controls
Outline: as §1

[4] = system: Avena fatua; assay: Pre-emergence herbicidal action against AVEFA; settings: visual score after 3 weeks vs untreated controls
Outline: as §1

[5] = system: Cyperus esculentus; assay: Pre-emergence herbicidal action against CYPES; settings: visual score after 3 weeks vs untreated controls
Excerpt: (§2) Seeds of monocotyledonous and dicotyledonous weed plants and crop plants are laid out in sandy loam soil in wood-fiber pots and covered with soil. The compounds of the invention, formulated in the form of wettable powders (WP) or as emulsion concentrates (EC), are then applied to the surface of the covering soil in the form of an aqueous suspension or emulsion at a water application rate equivalent to 600 to 800 l/ha, with addition of 0.2% wetting agent. After the treatment, the pots are placed in a greenhouse and kept under good growth conditions for the trial plants. The damage to the test plants is scored visually after a test period of 3 weeks by comparison with untreated controls (herbicidal activity in percent (%): 100% activity=the plants have died, 0% activity=like control plants). […] The tables below illustrate, in an illustrative manner, the post-emergence herbicidal action of the compounds of the invention, the herbicidal activity being stated in percent.

[6] = system: Echinochloa crus-galli; assay: Pre-emergence herbicidal action against ECHCG; settings: visual score after 3 weeks vs untreated controls
Outline: as §1

[7] = system: Matricaria inodora; assay: Pre-emergence herbicidal action against MATIN; settings: visual score after 3 weeks vs untreated controls
Outline: as §1

[8] = system: Pharbitis purpurea; assay: Pre-emergence herbicidal action against PHBPU; settings: 320 g/ha; visual score after 3 weeks vs untreated controls
Excerpt: as §2

[9] = system: Hordeum murinum; assay: Pre-emergence herbicidal action against HORMU; settings: visual score after 3 weeks vs untreated controls
Excerpt: as §2

[10] = system: Lolium rigidum; assay: Pre-emergence herbicidal action against LOLRI; settings: 320 g/ha
Outline: as §1

[11] = system: Setaria viridis; assay: Pre-emergence herbicidal action against SETVI
Outline: as §1

[12] = system: Stellaria media; assay: Pre-emergence herbicidal action against STEME
Excerpt: as §2

[13] = system: Veronica persica; assay: Pre-emergence herbicidal action against VERPE; settings: 320 g/ha
Outline: as §1

[14] = system: Viola tricolor; assay: Pre-emergence herbicidal action against VIOTR
Outline: as §1

[15] = system: Abutilon theophrasti; assay: Post-emergence herbicidal action against ABUTH
Outline: (§3)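 Spray, one-leaf stage: WP or EC compound in water, 600–800 l/ha, 0.2% wetting agent. Plants held about 3 weeks in the greenhouse, then visually rated in percent of kill compared with untreated controls.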

[16] = system: Alopecurus myosuroides; assay: Post-emergence herbicidal action against ALOMY
Outline: as §3

[17] = system: Amaranthus retroflexus; assay: Post-emergence herbicidal action against AMARE; settings: visual assessment about 3 weeks after treatment
Outline: as §3

[18] = system: Avena fatua; assay: Post-emergence herbicidal action against AVEFA; settings: visual assessment about 3 weeks after treatment
Outline: as §3

[19] = system: Echinochloa crus-galli; assay: Post-emergence herbicidal action against ECHCG; settings: visual assessment about 3 weeks after treatment
Outline: as §3

[20] = system: Matricaria inodora; assay: Post-emergence herbicidal action against MATIN; settings: visual assessment about 3 weeks after treatment
Outline: as §3

[21] = system: Pharbitis purpurea; assay: Post-emergence herbicidal action against PHBPU; settings: visual assessment about 3 weeks after treatment
Outline: as §3

[22] = system: Hordeum murinum; assay: Post-emergence herbicidal action against HORMU
Experimental: (§4) Seeds of monocotyledonous and dicotyledonous weed and crop plants are laid out in sandy loam soil in wood-fiber pots, covered with soil and cultivated in a greenhouse under good growth conditions. 2 to 3 weeks after sowing, the test plants are treated at the one-leaf stage. The compounds of the invention, formulated in the form of wettable powders (WP) or as emulsion concentrates (EC), are then sprayed onto the green parts of the plants in the form of an aqueous suspension or emulsion at a water application rate equivalent to 600 to 800 l/ha, with addition of 0.2% wetting agent. After the test plants have been left to stand in the greenhouse under optimal growth conditions for about 3 weeks, the action of the preparations is assessed visually in comparison to untreated controls (herbicidal action in percent (%): 100% activity=the plants have died, 0% activity=like control plants). […] The tables below illustrate, in an illustrative manner, the post-emergence herbicidal action of the compounds of the invention, the herbicidal activity being stated in percent.

[23] = system: Setaria viridis; assay: Post-emergence herbicidal action against SETVI; settings: visual assessment about 3 weeks after treatment
Outline: as §3

[24] = system: Stellaria media; assay: Post-emergence herbicidal action against STEME; settings: visual assessment about 3 weeks after treatment
Experimental: as §4

[25] = system: Viola tricolor; assay: Post-emergence herbicidal action against VIOTR
Outline: as §3

SMILES: CCCn1nnnc1NC(=O)c1ccc(C(F)(F)F)c(C(=O)N(C)C)c1Cl [Example 3-123]
- Pre-emergence action against ABUTH ([1]; 80 g/ha): 100%
- Pre-emergence action against ABUTH ([1]; Dosage column 320 g/ha (heading prints 3200 g/ha)): 100%
- Pre-emergence action against ALOMY ([2]; 80 g/ha): 80%
- Pre-emergence action against ALOMY ([2]; 320 g/ha): 90%
- Pre-emergence action against AMARE ([3]; 20 g/ha): 100%
- Pre-emergence action against AMARE ([3]; 80 g/ha): 100%
- Pre-emergence action against AMARE ([3]; 320 g/ha): 100%
- Pre-emergence action against AVEFA ([4]; 80 g/ha): 80%
- Pre-emergence action against AVEFA ([4]; 320 g/ha): 100%
- Pre-emergence action against CYPES ([5]; 80 g/ha): 80%
- Pre-emergence action against CYPES ([5]; 320 g/ha): 90%
- Pre-emergence action against ECHCG ([6]; 80 g/ha): 80%
- Pre-emergence action against ECHCG ([6]; 320 g/ha): 100%
- Pre-emergence action against MATIN ([7]; 20 g/ha): 80%
- Pre-emergence action against MATIN ([7]; 80 g/ha): 90%
- Pre-emergence action against MATIN ([7]; 320 g/ha): 100%
- Pre-emergence action against PHBPU [8]: 90%
- Pre-emergence action against HORMU ([9]; 80 g/ha): 80%
- Pre-emergence action against HORMU ([9]; 320 g/ha): 100%
- Pre-emergence action against LOLRI [10]: 80%
- Pre-emergence action against SETVI ([11]; 80 g/ha): 100%
- Pre-emergence action against SETVI ([11]; 320 g/ha): 100%
- Pre-emergence action against STEME ([12]; 20 g/ha): 90%
- Pre-emergence action against STEME ([12]; 80 g/ha): 100%
- Pre-emergence action against STEME ([12]; 320 g/ha): 100%
- Pre-emergence action against VERPE [13]: 90%
- Pre-emergence action against VIOTR ([14]; 80 g/ha): 80%
- Pre-emergence action against VIOTR ([14]; 320 g/ha): 100%
- Post-emergence action against ABUTH ([15]; 5 g/ha): 100%
- Post-emergence action against ABUTH ([15]; 20 g/ha): 100%
- Post-emergence action against ABUTH ([15]; 80 g/ha): 100%
- Post-emergence action against ALOMY ([16]; 20 g/ha): 80%
- Post-emergence action against ALOMY ([16]; 80 g/ha): 100%
- Post-emergence action against AMARE in % ([17]; 5 g/ha): 100%
- Post-emergence action against AMARE in % ([17]; 20 g/ha): 100%
- Post-emergence action against AMARE in % ([17]; 80 g/ha): 100%
- Post-emergence action against AVEFA in % ([18]; 5 g/ha): 80%
- Post-emergence action against AVEFA in % ([18]; 20 g/ha): 100%
- Post-emergence action against AVEFA in % ([18]; 80 g/ha): 100%
- Post-emergence action against ECHCG in % ([19]; 5 g/ha): 90%
- Post-emergence action against ECHCG in % ([19]; 20 g/ha): 100%
- Post-emergence action against ECHCG in % ([19]; 80 g/ha): 100%
- Post-emergence action against MATIN in % ([20]; 5 g/ha): 90%
- Post-emergence action against MATIN in % ([20]; 20 g/ha): 100%
- Post-emergence action against MATIN in % ([20]; 80 g/ha): 100%
- Post-emergence action against PHBPU in % ([21]; 5 g/ha): 80%
- Post-emergence action against PHBPU in % ([21]; 20 g/ha): 90%
- Post-emergence action against PHBPU in % ([21]; 80 g/ha): 90%
- Post-emergence action against HORMU in % ([22]; 20 g/ha): 90%
- Post-emergence action against HORMU in % ([22]; 80 g/ha): 100%
- Post-emergence action against SETVI in % ([23]; 5 g/ha): 100%
- Post-emergence action against SETVI in % ([23]; 20 g/ha): 100%
- Post-emergence action against SETVI in % ([23]; 80 g/ha): 100%
- Post-emergence action against STEME in % ([24]; 5 g/ha): 90%
- Post-emergence action against STEME in % ([24]; 20 g/ha): 100%
- Post-emergence action against STEME in % ([24]; 80 g/ha): 100%
- Post-emergence action against VIOTR in % ([25]; 5 g/ha): 90%
- Post-emergence action against VIOTR in % ([25]; 20 g/ha): 100%
- Post-emergence action against VIOTR in % ([25]; 80 g/ha): 100%
